Results: the supplement of paper PMC10307832

Key:
Assay in all cases: relative viability (nuclei count vs DMSO), 5 days (fraction); higher = more cells survive
Palbociclib + Trametinib = compound: CC(=O)c1c(C)c2cnc(Nc3ccc(N4CCNCC4)cn3)nc2n(C2CCCC2)c1=O [Palbociclib] + CC(=O)Nc1cccc(-n2c(=O)n(C3CC3)c(=O)c3c(Nc4ccc(I)cc4F)n(C)c(=O)c(C)c32)c1 [Trametinib] (partner 0.02 µM)
Outline: (§1)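 Lung cancer cell lines, seeded in 1536-well plates, were treated the following day by pin tool with a single drug or with five library-drug doses (not always all listed) in √10 steps on top of a fixed anchor-drug dose. Cells were fixed and nuclei stained in one step after 5 days, and nuclei were counted. Relative viability is the nuclei count for treated wells divided by that for vehicle wells, reported as medians of duplicate plates.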

Palbociclib + Crizotinib = compound: CC(=O)c1c(C)c2cnc(Nc3ccc(N4CCNCC4)cn3)nc2n(C2CCCC2)c1=O [Palbociclib] + C[C@@H](Oc1cc(-c2cnn(C3CCNCC3)c2)cnc1N)c1c(Cl)ccc(F)c1Cl [Crizotinib] (partner 1 µM)
Outline: as §1

Palbociclib + Tozasertib = compound: CC(=O)c1c(C)c2cnc(Nc3ccc(N4CCNCC4)cn3)nc2n(C2CCCC2)c1=O [Palbociclib] + Cc1cc(Nc2cc(N3CCN(C)CC3)nc(Sc3ccc(NC(=O)C4CC4)cc3)n2)n[nH]1 [Tozasertib] (partner 0.1 µM)
Outline: as §1

Palbociclib + AZD7762 = compound: CC(=O)c1c(C)c2cnc(Nc3ccc(N4CCNCC4)cn3)nc2n(C2CCCC2)c1=O [Palbociclib] + NC(=O)Nc1cc(-c2cccc(F)c2)sc1C(=O)N[C@H]1CCCNC1 [AZD7762] (partner 0.2 µM)
Outline: as §1

Row | Cell Line | relative viability (Palbociclib + Trametinib; first compound 0.01 µM) | relative viability (Palbociclib + Trametinib; first compound 0.03162 µM) | relative viability (Palbociclib + Trametinib; first compound 0.1 µM) | relative viability (Palbociclib + Trametinib; first compound 0.3162 µM) | relative viability (Palbociclib + Trametinib; first compound 1 µM) | relative viability (Palbociclib + Crizotinib; first compound 0.01 µM) | relative viability (Palbociclib + Crizotinib; first compound 0.03162 µM) | relative viability (Palbociclib + Crizotinib; first compound 0.1 µM) | relative viability (Palbociclib + Crizotinib; first compound 0.3162 µM) | relative viability (Palbociclib + Crizotinib; first compound 1 µM) | relative viability (Palbociclib + Tozasertib; first compound 0.01 µM) | relative viability (Palbociclib + Tozasertib; first compound 0.03162 µM) | relative viability (Palbociclib + Tozasertib; first compound 0.1 µM) | relative viability (Palbociclib + Tozasertib; first compound 0.3162 µM) | relative viability (Palbociclib + Tozasertib; first compound 1 µM) | relative viability (Palbociclib + AZD7762; first compound 0.01 µM) | relative viability (Palbociclib + AZD7762; first compound 0.03162 µM) | relative viability (Palbociclib + AZD7762; first compound 0.1 µM) | relative viability (Palbociclib + AZD7762; first compound 0.3162 µM) | relative viability (Palbociclib + AZD7762; first compound 1 µM)
1 | SK-MES-1 | 0.562 | 0.463 | 0.469 | 0.432 | 0.313 | 0.943 | 0.952 | 0.724 | 0.714 | 0.45 | 0.858 | 0.76 | 0.595 | 0.502 | 0.29 | – | – | – | – | –
2 | NCI-H1648 | 0.657 | 0.364 | 0.357 | 0.45 | 0.406 | – | – | – | – | – | 0.585 | – | 0.405 | 0.526 | 0.175 | 0.841 | 0.436 | 0.598 | 0.657 | 0.56
3 | NCI-H1395 | 1.08 | 0.884 | 0.816 | 0.854 | 0.731 | – | – | – | – | – | 0.791 | 0.709 | 0.627 | 0.676 | 0.635 | 0.428 | 0.406 | 0.406 | 0.453 | 0.407
4 | UMC-11 | 0.762 | 0.602 | 0.421 | 0.406 | 0.258 | 0.603 | 0.519 | 0.428 | 0.346 | 0.177 | 0.197 | 0.187 | 0.202 | 0.22 | 0.208 | – | – | – | – | –
5 | COR-L23 | 0.666 | 0.521 | 0.362 | 0.434 | 0.209 | 0.707 | 0.551 | 0.427 | 0.32 | 0.287 | 0.197 | 0.146 | 0.16 | 0.157 | 0.124 | – | – | – | – | –
6 | NCI-H1650 | 0.623 | 0.575 | 0.39 | 0.58 | 0.411 | 0.957 | 0.724 | 0.776 | 0.684 | 0.548 | 0.48 | 0.317 | 0.44 | 0.337 | 0.338 | – | – | – | – | –
7 | SW 1573 | 0.6 | 0.432 | 0.515 | 0.42 | 0.366 | 0.776 | 0.672 | 0.685 | 0.758 | 0.615 | 0.151 | 0.185 | 0.167 | 0.148 | 0.163 | – | – | – | – | –
8 | NCI-H1703 | – | – | – | – | – | 0.845 | – | 0.513 | 0.505 | 0.227 | – | – | – | – | – | 0.12 | – | 0.109 | 0.0999 | 0.14
9 | NCI-H2228 | 0.606 | 0.373 | 0.494 | 0.522 | 0.483 | 0.447 | 0.45 | 0.406 | 0.31 | 0.369 | 0.247 | 0.235 | 0.247 | 0.261 | 0.23 | – | – | – | – | –
